One assay deals with crabgrass. Briefly: Example 1: pot test, foliar treatment, visually observed growth inhibition of crabgrass. It is filed as in vivo. An excerpt:
(§1) When the herbicidal activity in a case where two active ingredients are combined, is larger than the simple sum of the respective herbicidal activities of the two active ingredients (the expected activity), it is called a synergistic effect. The activity expected by the combination of two active ingredients can be calculated as follows (Colby S. R., “Weed”, vol. 15, p. 20-22, 1967). E=α+β−(α×β+100) where
(§2) α: growth inhibition rate when treated with x (g/ha) of herbicide X,
(§3) β: growth inhibition rate when treated with y (g/ha) of herbicide Y,
(§4) E: growth inhibition rate expected when treated with x (g/ha) of herbicide X and y (g/ha) of herbicide Y.
(§5) That is, when the actual growth inhibition rate (measured value) is larger than the growth inhibition rate by the above calculation (calculated value), the activity by the combination can be regarded as showing a synergistic effect.
(§6) Upland field soil was put into a 1/1,000,000 hectare pot, and seeds of various plants were sown. When the respective plants reached predetermined leaf stage, herbicidal compositions in predetermined amounts were diluted with water in an amount corresponding to 300 L/ha and applied for foliar treatment by a small sprayer.
(§7) Further, in accordance with the above Colby's formula, the growth inhibition rate (calculated value) was calculated. In Tables, with respect to the compound A, Compound Nos. in Table 1 or 3 are described, and with respect to other herbicidal compounds, common names are described.

For the next assay, the system named is velvetleaf. The experiment in a line: Example 1: pot test, foliar treatment, visually observed growth inhibition of velvetleaf. It is filed as in vivo, Abutilon theophrasti MEDIC.
Excerpt: as §1, §2, §3, §4, §5, §6, §7

The mark [1] stands for this setting: Digitaria sanguinalis, foliar, 3.0 to 4.3 leaf stage, 21st day after application, read-out: Growth inhibition rate (%) of crabgrass, Measured value.
Where [2] appears, read: Digitaria sanguinalis, foliar, 3.0 to 4.3 leaf stage, 21st day after application, 15 g/ha, read-out: Growth inhibition rate (%) of crabgrass, Measured value.
Setting [3] is: Digitaria sanguinalis, foliar, read-out: Growth inhibition rate (%) of crabgrass, Measured value.

Read-outs that look alike come from different tables or passages of the source.

Take `CCSC(=O)Oc1c(C(=O)c2ccc(S(C)(=O)=O)c(OCCOC)c2C)cnn1C` [No. 55, 5-(ethylthio)carbonyloxy-1-methylpyrazol-4-yl 3-(2-methoxyethoxy)-2-methyl-4-(methylsulfonyl)phenyl ketone]: the “Growth inhibition rate (%) of crabgrass, Measured value” with crabgrass (4.0 to 4.5 leaf stage, 21st day after application, 15 g/ha) is 85%. In addition, the inhibition at 7 g/ha was found to be 83% with crabgrass (setting [1]); 80% with crabgrass (Digitaria sanguinalis, foliar, 3.2 to 4.2 leaf stage, 21st day after application, read-out: Growth inhibition rate (%) of crabgrass, Measured value); 95% in the assay on crabgrass (Digitaria sanguinalis, foliar, 3.5 to 4.0 leaf stage, 21st day after application, read-out: Growth inhibition rate (%) of crabgrass, Measured value); 65% with velvetleaf (Abutilon theophrasti, foliar, 2.0 to 2.5 leaf stage, 21st day after application, read-out: Growth inhibition rate (%) of velvetleaf, Measured value); 70% in the assay with velvetleaf (Abutilon theophrasti, foliar, 2.0 to 2.8 leaf stage, 21st day after application, read-out: Growth inhibition rate (%) of velvetleaf, Measured value). Also, the inhibition at 15 g/ha turned out to be 95% in the assay with crabgrass (setting [2]); 98% in the assay with crabgrass (Digitaria sanguinalis, foliar, 3.2 to 4.2 leaf stage, 21st day after application, 15 g/ha, read-out: Growth inhibition rate (%) of crabgrass, Measured value); 73% in the assay on crabgrass (Digitaria sanguinalis, foliar, 4.0 to 4.5 leaf stage, 21st day after application, 15 g/ha, read-out: Growth inhibition rate (%) of crabgrass, Measured value); 90% with velvetleaf (Abutilon theophrasti, foliar, 2.0 to 2.8 leaf stage, 21st day after application, 15 g/ha, read-out: Growth inhibition rate (%) of velvetleaf, Measured value); 75% in the assay with velvetleaf (Abutilon theophrasti, foliar, 3.0 to 3.5 leaf stage, 21st day after application, 15 g/ha, read-out: Growth inhibition rate (%) of velvetleaf, Measured value). For the same molecule, the “Growth inhibition rate (%) of velvetleaf, Measured value” in the assay with velvetleaf (3.0 to 3.5 leaf stage, 21st day after application, 15 g/ha) is 89%.

As to `CCn1ncc(C(=O)c2ccc(S(C)(=O)=O)c(OCCOC)c2C)c1OC(=O)SC(C)C` [No. 208], the “Growth inhibition rate (%) of crabgrass, Measured value” in the assay on crabgrass (2.7 to 3.6 leaf stage, 21st day after application, 7.75 g/ha) amounted to 83%; in the assay on crabgrass (2.7 to 3.6 leaf stage, 21st day after application, 15.5 g/ha) it was 83%. The “Growth inhibition rate (%) of velvetleaf, Measured value” is given as 73% with velvetleaf (3.2 to 4.1 leaf stage, 21st day after application, 7.75 g/ha) and 73% with velvetleaf (3.2 to 4.1 leaf stage, 21st day after application, 15.5 g/ha).

As to `CCC(CC)Nc1c([N+](=O)[O-])cc(C)c(C)c1[N+](=O)[O-]` [Pendimethalin], in the assay on crabgrass (Digitaria sanguinalis, foliar, 3.5 to 5.0 leaf stage, 22nd day after application, 100 g/ha, read-out: Growth inhibition rate (%) of crabgrass, Measured value), the inhibition at 100 g/ha was determined as 30%. Moreover, the inhibition at 200 g/ha in the assay on velvetleaf (Abutilon theophrasti, foliar, 3.5 to 4.0 leaf stage, 22nd day after application, 200 g/ha, read-out: Growth inhibition rate (%) of velvetleaf, Measured value) was found to be 45%.

`CCOCCN(C(=O)CCl)C(=C(C)C)c1ccccc1` [Pethoxamid]: the “Growth inhibition rate (%) of crabgrass, Measured value” in the assay on crabgrass (3.5 to 5.0 leaf stage, 22nd day after application, 100 g/ha) came out at 0%. Further, in the assay on velvetleaf (3.5 to 4.0 leaf stage, 14th day after application, 200 g/ha), the “Growth inhibition rate (%) of velvetleaf, Measured value” is recorded as 60%.

Take `COc1nc(C)nc(NC(=O)NS(=O)(=O)c2ccccc2CCC(F)(F)F)n1` [Prosulfuron]: the inhibition at 15 g/ha was determined as 0% in the assay on crabgrass (setting [2]); 0% in the assay with crabgrass (Digitaria sanguinalis, foliar, 3.2 to 4.1 leaf stage, 14th day after application, 15 g/ha, read-out: Growth inhibition rate (%) of crabgrass, Measured value); 0% in the assay on crabgrass (Digitaria sanguinalis, foliar, 3.2 to 4.1 leaf stage, 21st day after application, 15 g/ha, read-out: Growth inhibition rate (%) of crabgrass, Measured value). Further, the inhibition at 30 g/ha with crabgrass (setting [1]) is 0%; in the assay with crabgrass (Digitaria sanguinalis, foliar, 3.2 to 4.1 leaf stage, 14th day after application, read-out: Growth inhibition rate (%) of crabgrass, Measured value) it was 10%; in the assay on velvetleaf (Abutilon theophrasti, foliar, 3.0 to 4.0 leaf stage, 21st day after application, 30 g/ha, read-out: Growth inhibition rate (%) of velvetleaf, Measured value) it was 95%. The inhibition at 5 g/ha in the assay with crabgrass (Digitaria sanguinalis, foliar, 3.2 to 4.3 leaf stage, 14th day after application, 5 g/ha, read-out: Growth inhibition rate (%) of crabgrass, Measured value) was 0%. In addition, the inhibition at 10 g/ha in the assay on crabgrass (Digitaria sanguinalis, foliar, 3.2 to 4.3 leaf stage, 14th day after application, 10 g/ha, read-out: Growth inhibition rate (%) of crabgrass, Measured value) was determined as 0%.

As for `CCCCCCCCSC(=O)Oc1cc(Cl)nnc1-c1ccccc1` [Pyridate], in the assay on crabgrass (Digitaria sanguinalis, foliar, 3.0 to 4.3 leaf stage, 21st day after application, 100 g/ha, read-out: Growth inhibition rate (%) of crabgrass, Measured value), the inhibition at 100 g/ha is 0%. Further, the inhibition at 200 g/ha with crabgrass (setting [1]) stood at 0%; with crabgrass (Digitaria sanguinalis, foliar, 3.2 to 4.3 leaf stage, 21st day after application, read-out: Growth inhibition rate (%) of crabgrass, Measured value), 0%; with crabgrass (Digitaria sanguinalis, foliar, 4.1 to 5.3 leaf stage, 20th day after application, read-out: Growth inhibition rate (%) of crabgrass, Measured value), 5%; with velvetleaf (Abutilon theophrasti, foliar, 3.2 to 4.3 leaf stage, 21st day after application, 200 g/ha, read-out: Growth inhibition rate (%) of velvetleaf, Measured value), 0%.

For the molecule `CCc1cccc(C)c1N(C(=O)CCl)[C@@H](C)COC` [S-Metolachlor, S-metolachlor, reference compound], the “Growth inhibition rate (%) of crabgrass, Measured value” is recorded as 8% in the assay with crabgrass (4.0 to 4.5 leaf stage, 21st day after application, 300 g/ha) and 0% with crabgrass (4.0 to 5.0 leaf stage, 21st day after application, 150 g/ha). Also, the “Growth inhibition rate (%) of velvetleaf, Measured value” in the assay on velvetleaf (2.4 to 3.2 leaf stage, on the 22nd day after application, foliar, active ingredient amount 150 g/ha) stood at 0%; in the assay with velvetleaf (2.5 to 3.3 leaf stage, 21st day after application, 150 g/ha) it was 0%; with velvetleaf (2.5 to 3.3 leaf stage, 21st day after application, 300 g/ha) it was 0%; with velvetleaf (3.0 to 3.5 leaf stage, 20th day after application, 150 g/ha), 0%; with velvetleaf (3.0 to 3.5 leaf stage, 21st day after application, 150 g/ha), 0%; in the assay on velvetleaf (3.0 to 3.5 leaf stage, 21st day after application, 300 g/ha), 0%. For the same molecule, the “Growth inhibition rate (%) of velvetleaf, Measured value” in the assay on velvetleaf (3.0 to 3.8 leaf stage, 15th day after application, 15 g/ha) came to 0%; in the assay with velvetleaf (3.2 to 5.0 leaf stage, 14th day after application, 150 g/ha), 0%; in the assay with velvetleaf (3.3 to 4.2 leaf stage, 14th day after application, 150 g/ha), 0%; in the assay with velvetleaf (3.3 to 4.2 leaf stage, 14th day after application, 300 g/ha), 0%; with velvetleaf (3.5 to 4.3 leaf stage, 21st day after application, 150 g/ha), 0%.

In the case of `CS(=O)(=O)c1ccc(C(=O)C2C(=O)CCCC2=O)c(Cl)c1` [Sulcotrione], in the assay on crabgrass (setting [3]), the inhibition at 15 g/ha was 10%, the inhibition at 15.6 g/ha worked out at 50% and the inhibition at 31 g/ha came out at 65%. In the assay with velvetleaf (Abutilon theophrasti, foliar, read-out: Growth inhibition rate (%) of velvetleaf, Measured value, 3.2 to 4.3 leaf stage, 21st day after application, 15 g/ha), the inhibition at 15 g/ha was determined as 25%.

One may read the inhibition as the change of the read-out against control, counted positive when it falls.

These data come from patent US8466088B2, “Herbicidal compositions containing benzoylpyrazole compounds” (Ishihara Sangyo Kaisha, Ltd., priority 2007, dated 2013).
